target: T1, recombinant human mPGES-1 (Homo sapiens, UniProt O14684); assay: Assay A: mPGES-1 enzyme assay (HTRF detection of PGE2); assay type: biochemical; conditions: biological assay A (compounds 1-41, 54, 55, 62, 73); PGE2 formation from PGH2, HTRF; read-out: mPGES-1 inhibitory effect IC50
T1 sequence (O14684 1-152): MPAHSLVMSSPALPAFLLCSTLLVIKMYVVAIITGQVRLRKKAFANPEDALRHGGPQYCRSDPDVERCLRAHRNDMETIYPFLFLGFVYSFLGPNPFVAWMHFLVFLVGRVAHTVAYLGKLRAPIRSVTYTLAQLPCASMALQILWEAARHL
Excerpt: Assay A: mPGES-1 Enzyme Assay
The basis of the assay used is to measure the inhibition of microsomal prostaglandin E2 synthase-1 (mPGES-1) dependent prostaglandin (PG) E2 formation from PGH2 by different compounds. Thus, the formation of PGE2 is used as signal and a lowering of this signal can be interpreted as inhibition of mPGES-1. Similar assays to measure inhibition of mPGES-1 have previously been described in the literature.
• Glutathione (Sigma, G-4251) • Freeze culture in Rosetta E coli expression strain. • LB growth media with Ampillicillin (Amp) final concentration in culture 50 μg/mL • Chloroamphenicol stock 34 mg/mL (chloro) final concentration in culture 34 μg/mL • Sterile growth flasks for 500 mL-1 liter cultures • 0.1 M KPi buffer pH 7.4 • 9.25% HCl • PGH2 (0.25 mM) • Fe (II) Cl2 tetrahydrate, 99% (Sigma, 220229) • 384-well plate with compounds • 96-well plate, polypropylene (Thermo fast 96 skirted VWR) • 384-well plate polypropylene PCR plate (Greiner 785201) • Greiner 384-well plate pp (In vitro cat. no. 781280) • Adhesive sealing film for 96-well plates (Sigma-Aldrich) • Aluminium foil (PCR foil, 310-0030-127-471 from Labora) • PBS (GIBCO 14040) • Prostaglandin E2 Assay (Cisbio, cat. no. 62P2APEC) • Biomek FX robot (Beckman Coulter) • Biomek NX robot (Beckman Coulter) • Multidrop; micro or combi (ThermoLabsystems) • Plate reader: Safire2 (Tecan)
Microsomes from Rosetta E. coli bacteria expressing recombinant human mPGES-1 can be derived as described below:
Inoculate 5 mL LB with Amp and Chloro with bacteria from freeze culture. Incubate over night at 37° C. with 200 rpm. Thereafter, inoculate 500-800 mL LB containing Amp and Chloro with the 5 mL on culture and grow to OD640 of 0.6-0.8. Chill the culture to +4° C. before induction. Induce the culture with IPTG at a final concentration of 400 μM. Express the protein at room temp 18-23° C. with 200 rpm shaking over night.
The following steps can be performed on the following day: • 1. Spin down the cells in 250 mL centrifuge flasks for 15 min at 7000 rpm • 2. Dissolve the pellet from 250 mL culture in 12.5 mL homogenization buffer • 3. Disintegrate the cells by sonication, 4×10 seconds at 35% amplitude • 4. Add 2.5 mL MgCl2 (100 mM) and DNase 12.5 μL (0.8 mg/mL) and incubate on ice for 30 min • 5. Spin down the bacteria debris and save the supernatant, 7000 rpm for 15 min • 6. Isolate the protein containing membranes in the supernatant by ultracentrifugation 45000×g for 1 hour. • 7. Discard the supernatant and dissolve the pellet in 20 mM KPi buffer and aliquot the enzyme and store aliquots at −80° C.
Before each experiment is performed an aliquot of the enzyme is thawed and it can then be dissolved in 0.1 M KPi pH 7.4 buffer containing 2.5 mM GSH. 50 μL of this enzyme solution is subsequently dispensed in a 384-well plate at room temperature. 0.5 μL of the inhibitor dissolved in DMSO is thereafter added to each well and incubated for 25 minutes at room temperature. Subsequently, 2 μL of PGH2 dissolved in an appropriate solvent is added to each well and after one minute at room temperature, the acidified stop solution containing FeCl2 is added. 4 μL of the total volume is transferred to a separate plate and diluted 750-fold in two separate steps before quantification of PGE2.
In order to quantitate the amount of PGE2 that has been formed, a homogenous time resolved fluorescent (HTRF) detection of PGE2 can be performed by the use of a commercially available kit from CisBio essentially according to the manufacturer's protocol. […]

| IC50 [nM] | Structure (SMILES) |
| --- | --- |
| ~1600 | CNC(=O)c1cc(NC(=O)c2cc(CNC(=O)C3(C)CCCCC3)ccc2C)ccc1Cl [Example 1, N-(4-Chloro-3-methylaminocarbonyl-phenyl)-2-methyl-5-[(1-methylcyclohexylcarbonylamino)methyl]-benzamide] |
| 4 | CC(C)(C)C(=O)NCc1ccc(Cl)c(C(=O)Nc2ccc(F)c(C(=O)Nc3ccc(Br)cc3)c2)c1 [Example 2, N-[4-Fluoro-3-(4-bromophenyl)aminocarbonyl-phenyl]-2-chloro-5-(tert-butylcarbonylamino)methyl-benzamide] |
| 22 | CC(C)(C)C(=O)NCc1ccc(Cl)c(C(=O)Nc2ccc(Cl)c(C(=O)Nc3ccc(Br)cc3)c2)c1 [Example 3, N-[4-Chloro-3-(4-bromophenyl)aminocarbonyl-phenyl]-2-chloro-5-(tert-butylcarbonylamino)methyl-benzamide] |

target: T1, recombinant human mPGES-1; assay: Assay B: mPGES-1 enzyme assay (modified); assay type: biochemical; conditions: biological assay B (all other compounds); PGH2 final conc. 2 μM, HTRF; read-out: mPGES-1 inhibitory effect IC50
In short: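 Microsomal recombinant human mPGES-1 preincubated 25 min at room temperature with compound in pH 7.4 phosphate buffer containing 2.5 mmol/L GSH; reaction started with 2 μM PGH2 (final), stopped with FeCl2 after 60 s. PGE2 quantified by HTRF against calibration curve; IC50 by nonlinear regression after background subtraction.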

| IC50 [nM] | Structure (SMILES) |
| --- | --- |
| 10 | CC(C)(C(=O)NCc1ccc(Cl)c(C(=O)Nc2ccc(OCC(F)F)c(C(=O)Nc3ccc(F)c(Cl)c3)c2)c1Cl)C(F)(F)F [Example 145, N-[4-(2,2-difluoroethyl)oxy-3-(4-fluoro-3-chlorophenyl)aminocarbonyl-phenyl]-2,6-dichloro-3-[(2,2,2-trifluoro-1,1-dimethyl-ethyl)carbonylamino]methyl-benzamide] |
| 14 | CC(C)(C(=O)NCc1ccc(Cl)c(C(=O)Nc2ccc(OCC(F)F)c(C(=O)NCCC(F)(F)F)c2)c1Cl)C(F)(F)F [Example 146] |
| 8 | CC(C)(C(=O)NCc1ccc(Cl)c(C(=O)Nc2ccc(OCC(F)F)c(C(=O)NCC(F)(F)F)c2)c1Cl)C(F)(F)F [Example 147] |
| 1 | CC(NC(=O)c1cc(NC(=O)c2c(Cl)ccc(CNC(=O)C(C)(C)C(F)(F)F)c2Cl)ccc1OCC(F)F)C1CC1 (stereo not drawn) [Example 148] |
| 4 | CC(C)(C(=O)NCc1ccc(Cl)c(C(=O)Nc2ccc(OCC(F)F)c(C(=O)NC3CCC(C(F)F)CC3)c2)c1Cl)C(F)(F)F (stereo not drawn) [Example 149] |
| 2 | CC(C)(C(=O)NCc1ccc(Cl)c(C(=O)Nc2ccc(OCC(F)F)c(C(=O)Nc3cccc(Cl)c3)c2)c1Cl)C(F)(F)F [Example 150] |
| 1 | CC(C)(C(=O)NCc1ccc(Cl)c(C(=O)Nc2ccc(OCC(F)F)c(C(=O)Nc3cc(F)cc(Cl)c3)c2)c1Cl)C(F)(F)F [Example 151] |
| 11 | CC(C)(C(=O)NCc1ccc(Cl)c(C(=O)Nc2ccc(OCC(F)F)c(C(=O)NCC3CC3)c2)c1Cl)C(F)(F)F [Example 152] |
| 5 | Cc1ccc(Cl)cc1NC(=O)c1cc(NC(=O)c2c(Cl)ccc(CNC(=O)C(C)(C)C(F)(F)F)c2Cl)ccc1OCC(F)F [Example 153] |
| 9 | CC(C)(C(=O)NCc1ccc(Cl)c(C(=O)Nc2ccc(OCC(F)F)c(C(=O)NC3CC(F)(F)C3)c2)c1Cl)C(F)(F)F [Example 154] |
| 150 | CC1(NC(=O)c2cc(NC(=O)c3c(Cl)ccc(CNC(=O)C(C)(C)C(F)(F)F)c3Cl)ccc2OCC(F)F)CCOCC1 [Example 155] |
| 1 | CC(C)(C(=O)NCc1ccc(Cl)c(C(=O)Nc2ccc(OCC(F)F)c(C(=O)Nc3ccc(Cl)c(F)c3)c2)c1Cl)C(F)(F)F [Example 156] |
| 22 | CC(C)(C(=O)NCc1ccc(Cl)c(C(=O)Nc2ccc(OCC(F)F)c(C(=O)NC3CCC(F)(F)CC3)c2)c1Cl)C(F)(F)F [Example 157] |
| 2 | COc1cc(Cl)ccc1NC(=O)c1cc(NC(=O)c2c(Cl)ccc(CNC(=O)C(C)(C)C(F)(F)F)c2Cl)ccc1OCC(F)F [Example 158] |
| 7 | CC(NC(=O)c1cc(NC(=O)c2c(Cl)ccc(CNC(=O)C(C)(C)C(F)(F)F)c2Cl)ccc1OCC(F)F)C(F)(F)F (stereo not drawn) [Example 159] |
| 7 | COC(C)(C)C(=O)NCc1ccc(Cl)c(C(=O)Nc2ccc(OCC(F)F)c(C(=O)Nc3ccc(Br)cc3)c2)c1 [Example 160] |
| 13 | CN1CCC[C@H]1C(=O)NCc1ccc(Cl)c(C(=O)Nc2ccc(OCC(F)F)c(C(=O)Nc3ccc(Br)cc3)c2)c1 [Example 161] |
| 8 | O=C(Nc1ccc(OCC(F)F)c(C(=O)Nc2ccc(Br)cc2)c1)c1cc(CNC(=O)C2(O)CC2)ccc1Cl [Example 162] |

| IC50 [nM] | Structure (SMILES) |
| --- | --- |
| 6 | CC1(C(=O)NCc2ccc(Cl)c(C(=O)Nc3ccc(OCC(F)F)c(C(=O)Nc4ccc(Br)cc4)c3)c2)CCCO1 (stereo not drawn) [Example 163] |
| 79 | O=C(Nc1ccc(OCC(F)F)c(C(=O)Nc2ccc(Br)cc2)c1)c1cc(CNC(=O)C2CCCN2c2nccs2)ccc1Cl (stereo not drawn) [Example 164] |
| 8 | CC(C)(C#N)C(=O)NCc1ccc(Cl)c(C(=O)Nc2ccc(OCC(F)F)c(C(=O)Nc3ccc(Br)cc3)c2)c1 [Example 165] |
| 8 | CC(O)(C(=O)NCc1ccc(Cl)c(C(=O)Nc2ccc(OCC(F)F)c(C(=O)Nc3ccc(Br)cc3)c2)c1)C(F)(F)F (stereo not drawn) [Example 166] |
| 47 | Cn1cccc1C(=O)NCc1ccc(Cl)c(C(=O)Nc2ccc(OCC(F)F)c(C(=O)Nc3ccc(Br)cc3)c2)c1 [Example 167] |
| 105 | Cc1nc(C(=O)NCc2ccc(Cl)c(C(=O)Nc3ccc(OCC(F)F)c(C(=O)Nc4ccc(Br)cc4)c3)c2)c(C)s1 [Example 168] |
| 9 | O=C(Nc1ccc(OCC(F)F)c(C(=O)Nc2ccc(Br)cc2)c1)c1cc(CNC(=O)C(O)C(F)(F)F)ccc1Cl (stereo not drawn) [Example 169] |
| 50 | CC(C(=O)NCc1ccc(Cl)c(C(=O)Nc2ccc(OCC(F)F)c(C(=O)Nc3ccc(Br)cc3)c2)c1)N1CCCC1 (stereo not drawn) [Example 170] |
| 6 | CC(N)(C(=O)NCc1ccc(Cl)c(C(=O)Nc2ccc(OCC(F)F)c(C(=O)Nc3ccc(Br)cc3)c2)c1)C(F)(F)F (stereo not drawn) [Example 171] |
| 6 | CC(C)(O)C(=O)NCc1ccc(Cl)c(C(=O)Nc2ccc(OCC(F)F)c(C(=O)Nc3ccc(Br)cc3)c2)c1 [Example 172] |
| 48 | N#CC1(C(=O)NCc2ccc(Cl)c(C(=O)Nc3ccc(OCC(F)F)c(C(=O)Nc4ccc(Br)cc4)c3)c2)CC1 [Example 173] |
| 8 | NC(C(=O)NCc1ccc(Cl)c(C(=O)Nc2ccc(OCC(F)F)c(C(=O)Nc3ccc(Br)cc3)c2)c1)C(F)(F)F (stereo not drawn) [Example 174] |
| 9 | CC(C)C(O)C(=O)NCc1ccc(Cl)c(C(=O)Nc2ccc(OCC(F)F)c(C(=O)Nc3ccc(Br)cc3)c2)c1 (stereo not drawn) [Example 175] |
| 50 | CNC(C)(C)C(=O)NCc1ccc(Cl)c(C(=O)Nc2ccc(OCC(F)F)c(C(=O)Nc3ccc(Br)cc3)c2)c1 [Example 176] |
| 7 | CC(C)(C)C(=O)NCc1ccc(Cl)c(C(=O)Nc2cnc(OCC(F)F)c(C(=O)N[C@H]3CC[C@H](C(F)(F)F)CC3)c2)c1Cl [Example 178] |
| 4 | CC(C)(C)C(=O)NCc1ccc(Cl)c(C(=O)Nc2ccc(N3CCC(F)(F)C3)c(C(=O)Nc3ccc(Br)cc3)c2)c1Cl [Example 179] |
| 2 | CC(C)(C)C(=O)NCc1ccc(Cl)c(C(=O)Nc2ccc(N3CCCC(C(F)(F)F)C3)c(C(=O)Nc3ccc(Br)cc3)c2)c1Cl (stereo not drawn) [Example 180] |
| 2 | CC(C)(C)C(=O)NCc1ccc(Cl)c(C(=O)Nc2ccc(N3CCC(F)(F)CC3)c(C(=O)Nc3ccc(Br)cc3)c2)c1Cl [Example 181] |
